Earlier results as cited in patent US20150216948A1, “CYTOCHROME P450 SUICIDE GENE SYSTEM” (priority 2012, published 2015).

Settings: 5-day infusion regimens, patients with lung and liver cancers

**Q.** Which “serum concentrations, highly efficient for killing human P427 mutant CYP4B1 transgenic human cells within 72 h” value does the source give for `CC(O)CCC(=O)c1ccoc1` (stereo not shown) [4-IPO, 1-[3-furyl]-4-hydroxypentanone] here?
**A.** up to 90 μM
